pIC50: −log10 of the molar value.

Drawing on patent publication US10030047B2 (Hoffmann-La Roche Inc., priority 2015, dated 2018), this text covers IC50 for five compounds.

The test system of this experiment is A. baumannii strain ATCC17978. In words: 50% growth inhibitory concentration (IC50) determination, Iso-Sensitest broth. Type of experiment: cell-based. The following applies: Acinetobacter baumannii; A. baumannii ATCC17978; Iso-Sensitest medium; OD 600 nm over 16 h; read-out: IC50 ATCC17978. A digest of the protocol:
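Twofold dilution series (e.g. 50 to 0.097 μM final) in Iso-Sensitest broth, inoculum ~5×10^(5) CFU/ml, incubated at 35±2° C. OD600 read every 20 min over 16 h; IC50 and IC90 calculated during logarithmic growth.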
For the compound `CN1C(=O)[C@H](CCCCN)NC(=O)[C@H](CCCN)NCc2cccnc2Sc2c(Cl)ccc(-c3ccc(C(=O)NCCN4CCOCC4)cc3)c2CNC(=O)[C@@H]1Cc1c[nH]c2ccccc12` [Example 249, 4-[(11S,14S,17S)-14-(4-Amino-butyl)-11-(3-amino-propyl)-25-chloro-17-(1H-indol-3-ylmethyl)-16-methyl-12,15,18-trioxo-2-thia-4,10,13,16,19-pentaaza-tricyclo[19.4.0.0*3,8*]pentacosa-1(25),3(8),4,6,21,23-hexaen-22-yl]-N-(2-morpholin-4-yl-ethyl)-benzamide], the pIC50 was more than 7.00.
As to `CN1C(=O)[C@H](CCCCN)NC(=O)[C@H](CCCN)NCc2cccnc2Sc2c(Cl)ccc(-c3ccc(C4CCNCC4)cc3)c2CNC(=O)[C@@H]1Cc1c[nH]c2ccccc12` [Example 250, (11S,14S,17S)-14-(4-Amino-butyl)-1-(3-amino-propyl)-25-chloro-17-(1H-indol-3-ylmethyl)-16-methyl-22-(4-piperidin-4-yl-phenyl)-2-thia-4,10,13,16,19-pentaaza-tricyclo[19.4.0.0*3,8*]pentacosa-1(25),3(8),4,6,21,23-hexaene-12,15,18-trione], the pIC50 was more than 7.00.
`CNCCCC[C@@H]1NC(=O)[C@H](CCCN)NCc2cccnc2Sc2c(Cl)cc(Cl)cc2CNC(=O)[C@H](Cc2c[nH]c3ccccc23)N(C)C1=O` [Example 251, (11S,14S,17S)-11-(3-Amino-propyl)-23,25-dichloro-17-(1H-indol-3-ylmethyl)-16-methyl-14-(4-methylamino-butyl)-2-thia-4,10,13,16,19-pentaaza-tricyclo[19.4.0.0*3,8*]pentacosa-1(25),3(8),4,6,21,23-hexaene-12,15,18-trione]: the pIC50 is more than 7.00.
The result for `CN1C(=O)[C@H](CCCCN)NC(=O)[C@H](CCCO)NCc2cccnc2Sc2c(Cl)cc(Cl)cc2CNC(=O)[C@@H]1Cc1c[nH]c2ccccc12` [Example 252, (11S,14S,17S)-14-(4-Amino-butyl)-23,25-dichloro-11-(3-hydroxy-propyl)-17-(1H-indol-3-ylmethyl)-16-methyl-2-thia-4,10,13,16,19-pentaaza-tricyclo[19.4.0.0*3,8*]pentacosa-1(25),3(8),4,6,21,23-hexaene-12,15,18-trione] reads 6.30; that for `CCCC[C@@H]1NC(=O)[C@H](CCCN)NCc2cccnc2Sc2c(Cl)cc(Cl)cc2CNC(=O)[C@H](Cc2c[nH]c3ccccc23)N(C)C1=O` [Example 253, (11S,14S,17S)-11-(3-Amino-propyl)-14-butyl-23,25-dichloro-17-(1H-indol-3-ylmethyl)-16-methyl-2-thia-4,10,13,16,19-pentaaza-tricyclo[19.4.0.0*3,8*]pentacosa-1(25),3(8),4,6,21,23-hexaene-12,15,18-trione], 5.38.

Broadly, the pIC50 is −log10 of the IC50, conventionally taken in molar units.
